In patent US20070202492A1, “Viral Assay” (University Of Warwick, priority 2004, published 2007):
≈ marks a conversion by molar mass, not a printed value.

Columns and labels:
[1] = tested on: APV-luciferase; type: cell-based, avian pneumovirus (APV)
[2] = tested on: BS-C-1 cells; test: Cell viability, MTT assay; type: cell-based
Description: For the negative control, cells were killed with 1% w/v SDS.

[3] = tested on: RSV; test: microbe, parasite or virus in culture; type: cell-based, human respiratory syncytial virus (RSV)
[4] = tested on: APV; test: microbe, parasite or virus in culture; type: cell-based, avian pneumovirus (APV)
[5] = tested on: RSV; test: Reduction in plaque number on BS-C-1 cells; type: cell-based, human respiratory syncytial virus (RSV); settings: RSV on BS-C-1 cells; 30 μg/ml drug
[6] = tested on: RSV; settings: HeLa cells, Kawana 1987, Watanabe 1994; cited from earlier work

Row | Structure (SMILES) | Antiviral activity against APV (luciferase reporter) ([1]; 100 ng/ml, FIG. 3C) | Toxicity to the cells ([2]; 100 ng/ml, FIG. 3D) | CAT expression ([3]; RSV, 50 μg/ml, FIG. 1) | Effect on CAT expression ([3]; RSV, lowest concentration tested, 10 μg/ml, FIG. 1) | EC50 ([3]; human respiratory syncytial virus, BSC-1, read-out: EC50 (50% effective concentration)) [µg/mL] | EC90 ([3]; human respiratory syncytial virus, BSC-1, read-out: EC90 (90% effective concentration)) [µg/mL] | Effect on CAT expression ([4]; APV, lowest concentration tested, 10 μg/ml, FIG. 1) | EC50 ([4]; avian metapneumovirus, BSC-1, read-out: EC50 (50% effective concentration)) [µg/mL] | EC90 ([4]; avian metapneumovirus, BSC-1, read-out: EC90 (90% effective concentration)) [µg/mL] | Inhibition of APV (luciferase reporter) ([1]; higher concentrations of ribavirin, FIG. 3A) | Toxicity to the cells ([2]; concentrations used in the experiment, FIG. 3B) | Reduction in titre (plaque number) [5] [fold] | EC50, published values [6] [µg/mL]
1 | COc1c(C)c2c(c(O)c1C/C=C(\C)CCC(=O)O)C(=O)OC2 [MPA, mycophenolic acid] | has antiviral activity | not toxic |  |  |  |  |  |  |  |  |  |  | 
2 | NC(=O)c1ncn([C@@H]2O[C@H](CO)[C@@H](O)[C@H]2O)n1 [ribavirin] |  |  | undetectable | obvious inhibitory effect | 4.2 (≈ 17.2 µM) | 17.1 (≈ 70 µM) | obvious inhibitory effect | 9 (≈ 36.9 µM) | 25.4 (≈ 104 µM) | strongly inhibited | not toxic | 100 | 3.1 to 6.2
